Data from US10487093B2, “Heterocyclic compounds, in particular 2-oxo-4,4,5,5,6,6,7,7-octahydrobenzoxazole derivatives, and their use as antibacterial compounds” (priority 2016, dated 2019).
In brackets after ≈: the same amount, converted by molar mass.

Experiments:
[1] = test system: Acinetobacter baumannii NCTC 13420; test: MIC, broth microdilution (CLSI) versus planktonic bacteria; format: cell-based; conditions: NCTC13420; Acinetobacter baumannii NCTC 13420; 16-20 h; mode of three independent experiments; read-out: MIC, Ab NCTC 13420
[2] = test system: Acinetobacter baumannii ATCC 19606; test: as above; format: cell-based; conditions: ATCC19606; Acinetobacter baumannii ATCC 19606; 16-20 h; mode of three independent experiments; read-out: MIC, Ab ATCC 19606
[3] = test system: Enterobacter cloacae NCTC 13406; test: as above; format: cell-based; conditions: NCTC13406; Enterobacter cloacae NCTC 13406; 16-20 h; mode of three independent experiments; read-out: MIC, Ecl NCTC 13406
[4] = test system: Escherichia coli ATCC 25922; test: as above; format: cell-based; conditions: ATCC25922; Escherichia coli ATCC 25922; 16-20 h; mode of three independent experiments; read-out: MIC, Ec ATCC 25922
E. coli ATCC BAA-2452 = test: as above; format: cell-based; conditions: Escherichia coli ATCC BAA-2452; 16-20 h; mode of three independent experiments; read-out: MIC, Ec ATCC BAA 2452
E. coli NCTC 13476 = test: as above; format: cell-based; conditions: NCTC13476; Escherichia coli NCTC 13476; 16-20 h; mode of three independent experiments; read-out: MIC, Ec NCTC 13476
E. coli MG1655 = test: as above; format: cell-based, Escherichia coli; conditions: Escherichia coli, MG1655, read-out: MIC, Ec MG1655 WT
[5] = test system: Haemophilus influenzae ATCC 49247; test: as above; format: cell-based; conditions: ATCC49247; Haemophilus influenzae ATCC 49247; 16-20 h; mode of three independent experiments; read-out: MIC, Hi ATCC 49247
[6] = test system: Pseudomonas aeruginosa ATCC 27853; test: as above; format: cell-based; conditions: ATCC27853; Pseudomonas aeruginosa ATCC 27853; 16-20 h; mode of three independent experiments; read-out: MIC, Pa ATCC 27853
[7] = test system: Staphylococcus aureus ATCC 29213; test: as above; format: cell-based; conditions: ATCC29213; Staphylococcus aureus ATCC 29213; 16-20 h; mode of three independent experiments; read-out: MIC, Sa ATCC 29213
E. coli MG1655 S83L = format: cell-based, Escherichia coli; conditions: compared to the isogenic parent strain E. coli MG1655; S83L mutation on DNA gyrase subunit GyrA
E. coli MG1655 D87G = format: cell-based, Escherichia coli; conditions: compared to the isogenic parent strain E. coli MG1655; D87G mutation on DNA gyrase subunit GyrA
[8] = test system: human hepatic cell line (HepG2 ATCC HB-8065); test: Human cell viability assay (CellTiter-Glo); conditions: Homo sapiens, HepG2, 24 h, read-out: IC50 (μg/mL) HepG2
[9] = test system: Streptococcus pneumoniae ATCC 49619; test: MIC, broth microdilution (CLSI) versus planktonic bacteria; format: cell-based; conditions: ATCC49619; Streptococcus pneumoniae ATCC 49619; 16-20 h; mode of three independent experiments; read-out: MIC, Sp ATCC 49619

Row | Compound | MIC [1] [µg/mL] | MIC [2] [µg/mL] | MIC [3] [µg/mL] | MIC [4] [µg/mL] | MIC (E. coli ATCC BAA-2452) [µg/mL] | MIC (E. coli NCTC 13476) [µg/mL] | MIC (E. coli MG1655) [µg/mL] | MIC [5] [µg/mL] | MIC [6] [µg/mL] | MIC [7] [µg/mL] | Fold increase in MIC, E. coli MG1655 S83L (E. coli MG1655 S83L) [fold] | Fold increase in MIC, E. coli MG1655 D87G (E. coli MG1655 D87G) [fold] | IC50 [8] [µg/mL] | MIC [9] [µg/mL]
1 | O=C1COc2ccc(N3C(=O)O[C@H]4C[C@@H](NCCn5c(=O)ccc6ncc(OC(F)F)cc65)CC[C@@H]43)nc2N1 [Compound 98, 1-(2-{[(3aS,6S,7aS)-2-oxo-3-{3-oxo-2H,3H,4H-pyrido[3,2-b][1,4]oxazin-6-yl}-octahydro-1,3-benzoxazol-6-yl]amino}ethyl)-7-(difluoromethoxy)-1,2-dihydro-1,5-naphthyridin-2-one] | < 1 | < 1 | 1 to 10 (≈ 1.84 to 18.4 µM) | < 1 | < 1 | 1 to 10 (≈ 1.84 to 18.4 µM) | < 1 | < 1 | 1 to 10 (≈ 1.84 to 18.4 µM) | < 1 | 1 | 1 | > 100 | 
2 | O=C1COc2cnc(N3C(=O)O[C@@H]4C[C@H](NCCn5c(=O)cnc6cc(F)c(F)cc65)CC[C@H]43)nc2N1 [Compound 38, 1-(2-{[(3aR,6R,7aR)-2-oxo-3-{7-oxo-6H,7H,8H-pyrimido[5,4-b][1,4]oxazin-2-yl}-octahydro-1,3-benzoxazol-6-yl]amino}ethyl)-6,7-difluoro-1,2-dihydroquinoxalin-2-one] | 1 to 10 (≈ 1.95 to 19.5 µM) | 1 to 10 (≈ 1.95 to 19.5 µM) | < 1 | < 1 | 1 to 10 (≈ 1.95 to 19.5 µM) | 1 to 10 (≈ 1.95 to 19.5 µM) | < 1 | < 1 | 1 to 10 (≈ 1.95 to 19.5 µM) | < 1 | 2 |  | 10 to 100 (≈ 19.5 to 195 µM) | < 1
3 | NCCOc1ccc2ccc(=O)n(CCN[C@@H]3CC[C@@H]4[C@@H](C3)OC(=O)N4c3ccc4c(n3)NC(=O)CO4)c2c1 [Compound 23, 1-(2-{[(3aR,6R,7aR)-2-oxo-3-{3-oxo-2H,3H,4H-pyrido[3,2-b][1,4]oxazin-6-yl}-octahydro-1,3-benzoxazol-6-yl]amino}ethyl)-7-(2-aminoethoxy)-1,2-dihydroquinolin-2-one] | 10 to 100 (≈ 18.7 to 187 µM) |  | > 100 | < 1 | 1 to 10 (≈ 1.87 to 18.7 µM) | 10 to 100 (≈ 18.7 to 187 µM) | 1 to 10 (≈ 1.87 to 18.7 µM) | > 100 | 1 to 10 (≈ 1.87 to 18.7 µM) | < 1 | 0.5 | 0.5 | > 100 | 1 to 10 (≈ 1.87 to 18.7 µM)
4 | O=C1COc2ccc(N3C(=O)O[C@H]4C[C@@H](NCCn5c(=O)ccc6ccc(OC(F)F)cc65)CC[C@@H]43)nc2N1 [Compound 101, 1-(2-{[(3aS,6S,7aS)-2-oxo-3-{3-oxo-2H,3H,4H-pyrido[3,2-b][1,4]oxazin-6-yl}-octahydro-1,3-benzoxazol-6-yl]amino}ethyl)-7-(difluoromethoxy)-1,2-dihydro quinolin-2-one] | < 1 | < 1 | 1 to 10 (≈ 1.85 to 18.5 µM) | < 1 | < 1 | < 1 | < 1 |  | 1 to 10 (≈ 1.85 to 18.5 µM) | < 1 | 1 | 1 | 10 to 100 (≈ 18.5 to 185 µM) | < 1
5 | N#Cc1cccc(-c2cccc(CN[C@H]3CC[C@H]4[C@H](C3)OC(=O)N4c3ccc4c(n3)NC(=O)CO4)c2)n1 [Compound 57, 6-[3-({[(3aS,6S,7aS)-2-oxo-3-{3-oxo-2H,3H,4H-pyrido[3,2-b][1,4]oxazin-6-yl}-octahydro-1,3-benzoxazol-6-yl]amino}methyl)phenyl]pyridine-2-carbonitrile] | < 1 | < 1 | 1 to 10 (≈ 2.01 to 20.1 µM) | < 1 | 1 to 10 (≈ 2.01 to 20.1 µM) | 1 to 10 (≈ 2.01 to 20.1 µM) | < 1 | < 1 |  | < 1 | 1 | 1 |  | < 1
6 | COc1ccc2ccc(=O)n(CCCN[C@H]3CC[C@H]4[C@H](C3)OC(=O)N4c3ccc4c(n3)NC(=O)CO4)c2n1 [Compound 83, 1-(3-{[(3aS,6S,7aS)-2-oxo-3-{3-oxo-2H,3H,4H-pyrido[3,2-b][1,4]oxazin-6-yl}-octahydro-1,3-benzoxazol-6-yl]amino}propyl)-7-methoxy-1,2-dihydro-1,8-naphthyridin-2-one] | < 1 | < 1 | < 1 | < 1 | < 1 | < 1 |  | < 1 | 1 to 10 (≈ 1.92 to 19.2 µM) | < 1 |  |  | 10 to 100 (≈ 19.2 to 192 µM) | < 1
7 | O=C1COc2ccc(N3C(=O)O[C@@H]4C[C@@H](NCCn5c(=O)cnc6cc(F)c(F)cc65)CC[C@@H]43)nc2N1 [Compound 22, 1-(2-{[(3aS,6S,7aR)-2-oxo-3-{3-oxo-2H,3H,4H-pyrido[3,2-b][1,4]oxazin-6-yl}-octahydro-1,3-benzoxazol-6-yl]amino}ethyl)-6,7-difluoro-1,2-dihydroquinoxalin-2-one] | < 1 | < 1 | < 1 | < 1 | < 1 | < 1 | < 1 | < 1 | 1 to 10 (≈ 1.95 to 19.5 µM) | < 1 | 2 | 2 |  | < 1
8 | O=C1COc2ccc(N3C(=O)O[C@@H]4C[C@H](NCCn5c(=O)cnc6cc(F)c(F)cc65)CC[C@H]43)nc2N1 [Compound 70, 1-(2-{[(3aR,6R,7aR)-2-oxo-3-{3-oxo-2H,3H,4H-pyrido[3,2-b][1,4]oxazin-6-yl}-octahydro-1,3-benzoxazol-6-yl]amino}ethyl)-6,7-difluoro-1,2-dihydroquinoxalin-2-one] | < 1 |  | < 1 | < 1 | < 1 | < 1 | < 1 | < 1 | < 1 | < 1 | 2 | 4 | 10 to 100 (≈ 19.5 to 195 µM) | < 1
9 | COc1cc2c(ccc(=O)n2CCN[C@H]2CC[C@H]3[C@H](C2)OC(=O)N3c2ccc3c(n2)NC(=O)CO3)cn1 [Compound 62, 1-(2-{[(3aS,6S,7aS)-2-oxo-3-{3-oxo-2H,3H,4H-pyrido[3,2-b][1,4]oxazin-6-yl}-octahydro-1,3-benzoxazol-6-yl]amino}ethyl)-7-methoxy-1,2-dihydro-1,6-naphthyridin-2-one] | < 1 | 1 to 10 (≈ 1.97 to 19.7 µM) |  | < 1 | 1 to 10 (≈ 1.97 to 19.7 µM) | 1 to 10 (≈ 1.97 to 19.7 µM) | 1 to 10 (≈ 1.97 to 19.7 µM) | 1 to 10 (≈ 1.97 to 19.7 µM) | 10 to 100 (≈ 19.7 to 197 µM) | < 1 | 1 | 0.5 |  | < 1
10 | C=CCOc1ccc2ccc(=O)n(CCN[C@H]3CC[C@H]4[C@H](C3)OC(=O)N4c3ccc4c(n3)NC(=O)CO4)c2c1 [Compound 89, 1-(2-{[(3aS,6S,7aS)-2-oxo-3-{3-oxo-2H,3H,4H-pyrido[3,2-b][1,4]oxazin-6-yl}-octahydro-1,3-benzoxazol-6-yl]amino}ethyl)-7-(prop-2-en-1-yloxy)-1,2-dihydroquinolin-2-one] | < 1 | < 1 | 1 to 10 (≈ 1.88 to 18.8 µM) | < 1 | < 1 | 1 to 10 (≈ 1.88 to 18.8 µM) |  | 1 to 10 (≈ 1.88 to 18.8 µM) | 1 to 10 (≈ 1.88 to 18.8 µM) | < 1 |  |  | 10 to 100 (≈ 18.8 to 188 µM) | < 1
11 | O=C1COc2ccc(N3C(=O)O[C@@H]4C[C@H](NCCn5c(=O)cnc6ccc(F)cc65)CC[C@H]43)nc2N1 [Compound 86, 1-(2-{[(3aR,6R,7aR)-2-oxo-3-{3-oxo-2H,3H,4H-pyrido[3,2-b][1,4]oxazin-6-yl}-octahydro-1,3-benzoxazol-6-yl]amino}ethyl)-7-fluoro-1,2-dihydroquinoxalin-2-one] | < 1 | < 1 | < 1 | < 1 | < 1 | < 1 |  | < 1 | 1 to 10 (≈ 2.02 to 20.2 µM) | < 1 |  |  | 10 to 100 (≈ 20.2 to 202 µM) | < 1
